target: T1, USP8 (Homo sapiens, UniProt P40818); assay: USP8 Activity Assay; assay type: biochemical; conditions: 400 nM Ub-AMC; 630 pM enzyme; pH8.8; pre-incubated 30 minutes at 25° C., 60 minutes at 37° C.; sigmoidal fit; read-out: USP 8 (Inhibition of cysteine protease activities)
T1 construct: His tag (from vector pFastBac-HT) (N); made in house; host or cells: Sf9 or High Five insect cells (baculovirus)
T1 sequence (P40818 1-1118): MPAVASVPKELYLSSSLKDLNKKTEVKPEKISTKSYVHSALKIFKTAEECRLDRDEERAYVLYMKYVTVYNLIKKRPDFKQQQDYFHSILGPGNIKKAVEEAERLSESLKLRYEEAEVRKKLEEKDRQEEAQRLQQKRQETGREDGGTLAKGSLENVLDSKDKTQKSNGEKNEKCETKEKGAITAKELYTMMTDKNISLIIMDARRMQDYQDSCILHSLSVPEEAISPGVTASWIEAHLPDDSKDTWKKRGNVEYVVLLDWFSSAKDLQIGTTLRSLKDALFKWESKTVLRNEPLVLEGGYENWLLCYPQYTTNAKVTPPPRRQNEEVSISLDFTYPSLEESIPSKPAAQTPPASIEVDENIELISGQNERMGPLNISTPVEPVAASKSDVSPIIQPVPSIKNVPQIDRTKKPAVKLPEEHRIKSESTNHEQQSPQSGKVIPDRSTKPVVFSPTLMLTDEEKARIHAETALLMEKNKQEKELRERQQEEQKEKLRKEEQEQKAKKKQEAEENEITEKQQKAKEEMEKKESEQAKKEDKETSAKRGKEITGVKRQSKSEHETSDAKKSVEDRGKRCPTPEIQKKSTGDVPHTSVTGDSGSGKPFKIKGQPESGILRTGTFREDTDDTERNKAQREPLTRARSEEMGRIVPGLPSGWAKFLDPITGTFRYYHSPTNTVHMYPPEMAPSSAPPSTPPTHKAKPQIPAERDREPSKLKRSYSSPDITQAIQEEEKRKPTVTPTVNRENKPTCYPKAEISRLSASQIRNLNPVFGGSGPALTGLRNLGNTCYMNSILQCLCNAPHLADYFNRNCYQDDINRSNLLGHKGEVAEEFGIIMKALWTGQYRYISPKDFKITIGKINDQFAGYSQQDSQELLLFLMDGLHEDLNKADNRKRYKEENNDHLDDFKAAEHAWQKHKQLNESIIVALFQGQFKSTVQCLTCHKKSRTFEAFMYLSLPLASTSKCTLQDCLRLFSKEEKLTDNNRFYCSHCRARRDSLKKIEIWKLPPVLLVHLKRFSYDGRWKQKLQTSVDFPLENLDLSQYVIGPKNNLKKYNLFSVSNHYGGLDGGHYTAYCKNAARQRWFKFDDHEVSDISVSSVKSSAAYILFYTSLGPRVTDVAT
Description: The cDNA encoding USP8 was obtained by PCR amplification from placenta mRNA. USP8 cDNA was subcloned by PCR into a baculovirus expression vector (pFastBac-HT; Invitrogen). A cDNA encoding a mutated USP8 was generated by mutagenic PCR. The corresponding protein encodes a cysteine to alanine substitution at residue 786. The sequences were ascertained by sequencing of the entire open reading frame. Bacmids encoding USP7 were generated following DH10bac transposition. The corresponding bacmids were transfected into insect cells (Sf9). Viruses were recovered from culture supernatant and amplified twice. Insect cells (Sf9 or High Five; Invitrogen) were infected for 72 hours. Total cell lysates were harvested and lyzed in lysis buffer (Tris HCl 50 mM pH7.6; 0.75% NP40; 500 mM NaCl; 10% glycerol; 1 mM DTT; 10 mM imidazole; Protease Inhibitor Cocktail; AEBSF 20 μg.ml^−1; Aprotinin 10 μg.ml^−1). Proteins were affinity purified on metal affinity resins (Talon Metal affinity resin; BD Biosciences). Bound materials were extensively washed in wash buffer (50 mM Sodium Phosphate pH 7.0; 300 mM NaCl; 10 mM imidazole; 0.5% Triton X-100; 10% glycerol) and eluted from the resin in 250 mM imidazole-containing wash buffer. Proteins were dialyzed in dialysis buffer (Tris HCl pH 7.6 20 mM; NaCl 200 mM; DTT 1 mM; EDTA 1 mM; 10% Glycerol). Proteins purifications were analyzed on 4-12% NuPAGE (Invitrogen).
USP8 was diluted in USP buffer (50 mM Tris HCl; 0.5 mM EDTA; 5 mM DTT; 0.01% Triton X-100; Bovine Serum Albumin 0.05 mg.ml^−1 pH8.8). Compounds stocks (100 mM) were stored at −20° C. in DMSO.
Reactions were performed as duplicates in Black LJL 96 well plates (HE microplates; Molecular Devices; 20 μl final reaction volume). The substrate concentration for USP8 was 400 nM Ub-AMC (Boston Biochem). The concentrations of the enzyme (USP8) in specificity assays was 630 pM. The concentrations were determined in order to perform specificity assays under initial velocities at fixed substrate concentration. Compounds were pre-incubated with enzymes for 30 minutes at 25° C. Reactions were initiated by addition of substrate to the plates containing the enzymes (+/−compounds) diluted in assay buffer. Reactions were incubated for 60 minutes at 37° C. Reactions were stopped by adding acetic acid (100 mM final). Readings were performed on a Pherastar Fluorescent Reader (BMG). λ Emission 380 nm; λ Excitation=460 nm. Data (mean values +/− standard deviation) were analyzed as % of control (no compound) and plotted as percentage versus the Log of the compound concentration using GraphPad (Prism). Data were fitted to a sigmoidal model (variable slope).

| Compound | IC50 |
| --- | --- |
| Cc1nnc2nc3c(nn12)C(=O)c1ccccc1-3 [Example 1b/A, 1-Methyl-2,3,4,10,10a-pentaaza-cyclopenta[b]fluoren-9-one] | 701 nM |
| Nc1nnc2nc3c(nn12)C(=O)c1ccccc1-3 [Example 1c/A, 1-Amino-2,3,4,10,10a-pentaaza-cyclopenta[b]fluoren-9-one] | 840 nM |
| CCCc1nnc2nc3c(nn12)C(=O)c1ccccc1-3 [Example 1e/A, 1-Propyl-2,3,4,10,10a-pentaaza-cyclopenta[b]fluoren-9-one] | 952 nM |
| CCCCc1nnc2nc3c(nn12)C(=O)c1ccccc1-3 [Example 1f/A, 1-Butyl-2,3,4,10,10a-pentaaza-cyclopenta[b]fluoren-9-one] | 830 nM |
| CC(C)Cc1nnc2nc3c(nn12)C(=O)c1ccccc1-3 [Example 1g/A, 1-Isobutyl-2,3,4,10,10a-pentaaza-cyclopenta[b]fluoren-9-one] | 538 nM |
| O=C1c2ccccc2-c2nc3nnc(CO)n3nc21 [Example 1h/A, 1-Hydroxymethyl-2,3,4,10,10a-pentaaza-cyclopenta[b]fluoren-9-one] | 670 nM |
| O=C1c2ccccc2-c2nc3nnc(C4CC4)n3nc21 [Example 1j/A, 1-Cyclopropyl-2,3,4,10,10a-pentaaza-cyclopenta[b]fluoren-9-one] | 2500 nM |
| O=C1c2ccccc2-c2nc3nnc(Cc4ccccc4)n3nc21 [Example 1k/A, 1-Benzyl-2,3,4,10,10a-pentaaza-cyclopenta[b]fluoren-9-one] | 663 nM |
| Cn1nc2nc3c(nc2n1)-c1ccccc1C3=O [Example 4a, 2-Methyl-2H-1,2,3,4,10-pentaaza-cyclopenta[b]fluoren-9-one] | 10000 nM |
| O=C1c2ccccc2-c2nc3nn(Cc4ccccc4)nc3nc21 [Example 4b, 2-Benzyl-2H-1,2,3,4,10-pentaaza-cyclopenta[b]fluoren-9-one] | 15000 nM |

More lines, now with the values ahead:

| IC50 | Compound |
| --- | --- |
| 301 nM | 6-(7)-Chloro-1-methyl-2,3,4,10,10a-pentaaza-cyclopenta[b]fluoren-9-one [Example 3/A] |
| 81 nM | Nc1nnc2nc3c(nn12)-c1ccccc1C3=O [Example 1c/B, 3-Amino-1,2,3a,4,10-pentaaza-cyclopenta[b]fluoren-9-one] |
| 537 nM | CCc1nnc2nc3c(nn12)C(=O)c1ccccc1-3 [Example 1d/A, 1-Ethyl-2,3,4,10,10a-pentaaza-cyclopenta[b]fluoren-9-one] |
| 151 nM | CCCCc1nnc2nc3c(nn12)-c1ccccc1C3=O [Example 1f/B, 3-Butyl-1,2,3a,4,10-pentaaza-cyclopenta[b]fluoren-9-one] |
| 167 nM | CC(C)Cc1nnc2nc3c(nn12)-c1ccccc1C3=O [Example 1g/B, 3-Isobutyl-1,2,3a,4,10-pentaaza-cyclopenta[b]fluoren-9-one] |
| 164 nM | O=C1c2ccccc2-c2nn3c(CO)nnc3nc21 [Example 1h/B] |
| 166 nM | O=C1c2ccccc2-c2nn3c(Cc4ccccc4)nnc3nc21 [Example 1k/B, 3-Benzyl-1,2,3a,4,10-pentaaza-cyclopenta[b]fluoren-9-one] |
| 119 nM | Cc1nnc2nc3c(nn12)-c1ccc(Cl)cc1C3=O [Example 3/B, 7-Chloro-3-methyl-1,2,3a, 4,10-pentaaza-cyclopenta[b]fluoren-9-one] |
